Legend:
[1] = tested on: LPS-induced TNF-alpha release in PBMCs; assay: TNF-alpha inhibition assay, human PBMCs; format: cell-based; conditions: for EC50: geometric mean; for Potency compared to LEO 134310, TNF-alpha release: human PBMC assay
Method: PMBCs were isolated from human buffy coats or animal whole blood (EDTA-treated). Buffy coats from anonymized healthy adult blood donors were obtained from the Blood Bank of the National University Hospital Copenhagen in accordance with national legislation. Whole blood from mice (obtained from Charles River) was sampled at the animal facility at LEO Pharma and whole blood from pigs was sourced from ScanTox. Test compounds and PBMCs were incubated with 1 µg/ml LPS (Sigma) overnight at 37 °C in HEPES and Glutamax-containing RPMI medium supplemented with either 0.5% human serum albumin (human PBMCs) or 10% fetal bovine serum (mouse and pig PBMCs) and penicillin/streptomycin. TNF-alpha was measured using AlphaLISA (Perkin Elmer).
(§1) IC50 of test compounds was determined by 10-point titrations in duplicates. IC50 values and other parameters were calculated by sigmoidal curve fitting in Assay Explorer.

[2] = tested on: FKBP5 mRNA (GR target engagement); assay: Human skin explant, FKBP5 gene expression; format: cell-based; conditions: human skin explants; for FKBP5 Emax / FKBP5 Relative ED50 (API concentration in dosing solution): topical, 24 h; for FKBP5 Relative ED50 (API concentration in dosing solution): weighted geometric mean ± SD
Method: NativeSkin models (NS002) were purchased from Genoskin, France. Human skin samples from abdominal reduction surgery were obtained by Genoskin from donors upon written informed consent. Full ethical approval for the study protocol was obtained from the French ethical research committee (Comité de Protection des Personnes), and authorization was given by the French Ministry of Research. The study was conducted according to the Declaration of Helsinki. 8 mm punch biopsies were excised and embedded in a fibrin-based matrix in transwells and a silicone ring was firmly attached to the surface covering the outer edge of the skin biopsy to prevent lateral diffusion of topically applied formulations. Skin models were cultured in a defined hydrocortisone- and serum-free medium provided by Genoskin.
LEO 134310 and reference glucocorticoids were dissolved in propylene carbonate and tested at 4 concentrations in five- or tenfold titrations. Compounds were applied in duplicates or triplicates on the skin surface (0.5 cm^2) in a volume of 2 µL and incubated for 24 h. Vehicle and untreated samples were included for basal level of expression.
RNA was extracted and qPCR was performed using TaqMan gene expression assays (FKBP5-Hs01561006_m1, TSC22D3 (GILZ)-Hs00608272_m1, TXNIP-Hs01006900_g1, ACTB-Hs99999903_m1, PPIA-Hs99999904_m1, GAPDH-Hs99999905_m1). Gene expression of FKBP5,TSC22D3 (GILZ), and TXNIP was normalized to the geometric mean of the reference genes ACTB, PPIA and GAPDH.
Doses were expressed as compound (API) concentrations (µg/mL) in the applied formulations. Relative upregulation of FKBP5 was estimated as − fold to vehicle treated control. Effective doses (Emax and ED50) were determined from a sigmoid Emax model in Phoenix64 version 8.0, Pharsight, Certara. Mean values and standard deviation of Emax and ED50 were calculated by weighing individual experiments based on the intra- and inter-experiment variability.

[3] = tested on: spleen weight, plasma osteocalcin, body weight; assay: TPA-induced skin inflammation in mice, systemic side effects; format: in vivo, mouse; conditions: for Reduction of body weight gain, spleen weight, and plasma osteocalcin levels: indicating systemic exposure; for Spleen weight Imax / Spleen weight ID50: topical; for Suppression of osteocalcin levels at efficacious doses on skin inflammation: mouse TPA model; for Osteocalcin concentration ID50 / Osteocalcin concentration Imax: plasma
Method: Female Balb/c mice of 7 to 8 weeks old were obtained from Charles River, Germany and acclimatized for at least 1 week. Skin inflammation was induced by repeated topical application of TPA (20 μL of 0.01% TPA in acetone; 10 μL to each side of ear) on days 1, 3, 5, 8 and 10.
Treatments were performed by topical application of either vehicle (90% acetone, 10% transcutol), Treatments were applied twice daily on days 8, 9, 10, and once on day 11 (20–10 μL to each side of ear) with at least 5 h between the first and second treatment. TPA challenge on days 8 and 10 was performed at least 1 h after the first treatment. On day 11, animals were sacrificed 2 h after the last dosing. Blood was sampled by cardiac puncture from animals anaesthetized with isoflurane. Thereafter, ear biopsies were taken with a biopsy punch (8 mm diameter), weighed and stored at – 80 °C. Plasma osteocalcin levels were analyzed by EIA (rat-MID, IDS, UK). Effective inhibitory doses (ID50) were determined from a sigmoid I(max) model in Phoenix64, Pharsight, Certara. Therapeutic Index (TI) was calculated either as ID50 for spleen weight reduction or ID50 for blood osteocalcin concentrations, divided by ID50 for ear weight reduction.

GR = biological target: T1, GR (Homo sapiens, UniProt P04150); assay: Transrepression assay, PMA-induced MMP1 promoter luciferase in HeLa cells; format: cell-based; design: endogenous in cells; host or cells: HeLa (ATCC) stably expressing MMP1- or MMTV-promoter luciferase; conditions: for EC50: 18 h, geometric mean
T1 sequence (P04150 1-777): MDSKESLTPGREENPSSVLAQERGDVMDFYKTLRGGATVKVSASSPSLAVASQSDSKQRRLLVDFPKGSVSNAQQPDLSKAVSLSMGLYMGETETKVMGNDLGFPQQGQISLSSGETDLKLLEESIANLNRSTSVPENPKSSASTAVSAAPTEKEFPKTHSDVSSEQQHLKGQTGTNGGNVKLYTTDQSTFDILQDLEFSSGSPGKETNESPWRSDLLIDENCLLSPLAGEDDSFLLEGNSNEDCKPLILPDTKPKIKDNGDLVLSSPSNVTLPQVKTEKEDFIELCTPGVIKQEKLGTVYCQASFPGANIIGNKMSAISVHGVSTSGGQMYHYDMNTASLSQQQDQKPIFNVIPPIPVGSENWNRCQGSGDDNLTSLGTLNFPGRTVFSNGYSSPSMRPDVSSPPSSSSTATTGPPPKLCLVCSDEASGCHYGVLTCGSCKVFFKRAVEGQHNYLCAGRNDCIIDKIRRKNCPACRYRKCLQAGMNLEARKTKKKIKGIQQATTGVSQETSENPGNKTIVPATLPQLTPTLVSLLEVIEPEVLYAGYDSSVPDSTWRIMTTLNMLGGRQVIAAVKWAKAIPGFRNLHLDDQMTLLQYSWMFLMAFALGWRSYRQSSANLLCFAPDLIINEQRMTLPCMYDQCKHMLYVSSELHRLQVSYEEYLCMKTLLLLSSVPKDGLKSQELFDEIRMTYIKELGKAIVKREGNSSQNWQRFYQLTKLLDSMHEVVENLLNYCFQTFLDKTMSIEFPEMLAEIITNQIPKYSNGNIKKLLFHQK
Method: Assays were adopted from a method reported by Schäcke et al.[39] and HeLa cells were obtained from the American Type Culture Collection (ATCC). Transrepression assay: A HeLa cell line stably expressing luciferase under the control of the human Matrix Metallopeptidase 1 (MMP1) promoter was generated. Upon binding to the GR, […], preventing it from binding the MMP1 promoter, resulting in inhibition of luciferase transcription and activity. Briefly, cells were incubated in culture medium containing charcoal-filtered fetal bovine serum with 5 nM PMA (phorbol 12-myristate 13-acetate) for 18 h with or without test compounds. Then, luciferase activity was detected luminometrically after addition of specific substrate to the cells.
as §1

[4] = TPA mouse model, CV (%) in brackets

SMILES | FKBP5 Emax [2] | FKBP5 Relative ED50 (API concentration in dosing solution) [2] | Therapeutic index (Osteocalcin ID50/Ear ID50) ([3]; TPA mouse model) | Therapeutic index (Spleen ID50/Ear ID50) ([3]; TPA mouse model) | Reduction of body weight gain, spleen weight, and plasma osteocalcin levels ([3]; TPA mouse model) | Spleen weight Imax [3, 4] | Suppression of osteocalcin levels at efficacious doses on skin inflammation [3] | EC50 (GR) | Emax ([1]; PBMC, Human PBMCs) | EC50 ([1]; PBMC, Human PBMCs) | Potency compared to LEO 134310, TNF-alpha release [1] | Osteocalcin concentration ID50 [3, 4] | Osteocalcin concentration Imax [3, 4] | Spleen weight ID50 [3, 4] | Emax (GR) | also measured
C[C@H](NC(=O)[C@H]1CCCO1)[C@H](Oc1ccc(C(=O)O[C@H]2CCCN(C(=O)[C@H]3COC(=O)C3)C2)cc1)c1ccc(C2CC2)cc1 [LEO 134310] | 7.2 ± 2.7^NS fold to control | 270 ± 130 µg/mL | > 200 | 49 | not—or only to a lesser extent | 42 (56) % | did not suppress osteocalcin levels | 1.2 nM |  |  |  |  |  |  |  | Inhibition of LPS-induced TNF-alpha release Emax ([1]; Human PBMCs): 77%; EC50 ([1]; Human PBMCs): 2.3 nM; Higher dose needed to achieve similar level of FKBP5 induction as BMV [2]: approximately 30 fold; Higher therapeutic index (osteocalcin ID50 to ear weight ID50) compared to CP and BMV ([3]; TPA mouse model): > 5 fold; Higher therapeutic index (spleen weight ID50 to ear weight ID50) compared to CP and BMV ([3]; TPA mouse model): 2 fold; Spleen weight ID50 (extrapolated) ([3]; TPA mouse model, ID50 could not be determined, value extrapolated, CV (%) in brackets): 25,000 (110) µg/mL; Transrepression Emax (GR): 100%
CCC(=O)O[C@]1(C(=O)CCl)[C@@H](C)C[C@H]2[C@@H]3CCC4=CC(=O)C=C[C@]4(C)[C@@]3(F)[C@@H](O)C[C@@]21C [CP, Clobetasol Propionate] | 6.9 ± 3.1^NS fold to control | 0.52 ± 0.06^NS µg/mL | 43 | 17 | dose-dependent reduction | 70 (8) % | did | 0.064 nM | 79% | 0.52 nM | fourfold more potent | 64 (17) µg/mL | 88 (4) % | 26 (27) µg/mL | 90% | 
CCCCC(=O)O[C@]1(C(=O)CO)[C@@H](C)C[C@H]2[C@@H]3CCC4=CC(=O)C=C[C@]4(C)[C@@]3(F)[C@@H](O)C[C@@]21C [BMV, Betamethasone Valerate] | 5.6 ± 4.9 fold to control | 9.5 ± 6.9 µg/mL | 39 | 21 | dose-dependent reduction | 58 (9) % | did | 0.57 nM | 79% | 3.2 nM | equipotent | 200 (24) µg/mL | 74 (10) % | 110 (25) µg/mL | 78% | 
